Data on six compounds can be found in patent publication US4318847A, “Physiologically active tetrapeptides” (Zaidan Hojin Biseibutsu Kagaku Kenkyu Kai, priority 1979, dated 1982).

*1 amine or outer side, *2 acyl side, *3 side chain or, on linkers, in order; H or OH if unused. Where a SMILES comes first, the peptide text is derived from it. [ ]: non-standard residue; d: D form. The star is where a group is joined. Sta = CC(C)C[C@H](N)[C@@H](O)CC(=O)O; Isovaleryl = CC(C)CC(=O)*; CO = O=C([*:1])[*:2]

For one assay, the target named is T1, aminopeptidase A (AP-A) (Homo sapiens, UniProt Q07075).
T1 construct: an AP-A solution which was obtained by ammonium sulfate fractionation according to the method of Nagatsu et al; from tissue
T1 sequence (Q07075 whole entry): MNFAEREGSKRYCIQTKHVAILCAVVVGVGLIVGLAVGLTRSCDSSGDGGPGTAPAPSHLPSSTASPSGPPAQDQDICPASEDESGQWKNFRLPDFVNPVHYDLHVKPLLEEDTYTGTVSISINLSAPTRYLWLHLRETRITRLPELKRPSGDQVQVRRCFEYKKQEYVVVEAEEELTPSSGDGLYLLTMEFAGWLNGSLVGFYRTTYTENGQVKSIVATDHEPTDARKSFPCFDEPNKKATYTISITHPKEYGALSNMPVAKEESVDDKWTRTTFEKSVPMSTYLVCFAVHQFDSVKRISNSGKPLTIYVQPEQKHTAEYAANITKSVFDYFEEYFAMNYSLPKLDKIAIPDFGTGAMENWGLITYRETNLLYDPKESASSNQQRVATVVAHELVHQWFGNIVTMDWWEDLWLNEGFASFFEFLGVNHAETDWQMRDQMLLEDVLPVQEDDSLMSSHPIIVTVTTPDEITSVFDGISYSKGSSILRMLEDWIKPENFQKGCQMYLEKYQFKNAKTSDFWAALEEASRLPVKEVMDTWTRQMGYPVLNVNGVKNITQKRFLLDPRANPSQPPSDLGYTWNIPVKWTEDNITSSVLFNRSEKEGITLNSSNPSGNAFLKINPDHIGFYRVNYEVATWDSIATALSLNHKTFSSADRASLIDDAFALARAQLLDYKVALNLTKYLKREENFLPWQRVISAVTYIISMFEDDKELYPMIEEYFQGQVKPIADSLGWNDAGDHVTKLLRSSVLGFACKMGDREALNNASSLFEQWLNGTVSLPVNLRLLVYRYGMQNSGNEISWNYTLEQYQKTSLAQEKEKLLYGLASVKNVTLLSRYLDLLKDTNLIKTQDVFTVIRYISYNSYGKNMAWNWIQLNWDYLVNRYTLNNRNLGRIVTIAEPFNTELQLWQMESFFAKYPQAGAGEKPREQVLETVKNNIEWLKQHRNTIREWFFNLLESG
Briefly: AP-A (E.C. 3,4,11,7) inhibition assay. Format: biochemical. Particulars: L-α-glutamyl-β-naphthylamide substrate, pH 7.0, 37° C., 30 minutes; read-out: IC/50 AP--A: amount of the peptide to inhibit the intact activity of the target enzyme by 50% (converted). Here is the method:
That is, 0.25 ml of 2 mM L-α-glutamyl-β-naphthylamide, 0.54 ml of 0.1 M Tris-HCl buffer, pH 7.0, 0.01 ml of 0.1 M calcium chloride and 0.1 ml of a test sample in water were mixed and kept at 37° C. for 3 minutes. The reaction was initiated by addition of 0.1 ml of an AP-A solution which was obtained by ammonium sulfate fractionation according to the method of Nagatsu et al. After incubation at 37° C. for 30 minutes, 1 ml of 1.0 M acetate buffer, pH 4.2, containing 1.0 mg/ml Garnet GBC (orthoaminoazotoluene diazonium salt) and 10% Tween 20 (Atlas Chemical Co., U.S.A.) was added to the reaction solution and then allowed to stand at room temperature for 15 minutes. The absorbance of the test solution (a) was measured at 530 nm. The control solution without the test sample was used as the blank test (absorbance (b)). The inhibition percentage on aminopeptidase A was calculated as [(b-a)/b]x100.

In assay [1] the target is T2, leucine aminopeptidase (Leu-AP) (Sus scrofa, UniProt P28839).
T2 construct: purchased Boehringer-Mannheim Co
T2 sequence (P28839 1-519): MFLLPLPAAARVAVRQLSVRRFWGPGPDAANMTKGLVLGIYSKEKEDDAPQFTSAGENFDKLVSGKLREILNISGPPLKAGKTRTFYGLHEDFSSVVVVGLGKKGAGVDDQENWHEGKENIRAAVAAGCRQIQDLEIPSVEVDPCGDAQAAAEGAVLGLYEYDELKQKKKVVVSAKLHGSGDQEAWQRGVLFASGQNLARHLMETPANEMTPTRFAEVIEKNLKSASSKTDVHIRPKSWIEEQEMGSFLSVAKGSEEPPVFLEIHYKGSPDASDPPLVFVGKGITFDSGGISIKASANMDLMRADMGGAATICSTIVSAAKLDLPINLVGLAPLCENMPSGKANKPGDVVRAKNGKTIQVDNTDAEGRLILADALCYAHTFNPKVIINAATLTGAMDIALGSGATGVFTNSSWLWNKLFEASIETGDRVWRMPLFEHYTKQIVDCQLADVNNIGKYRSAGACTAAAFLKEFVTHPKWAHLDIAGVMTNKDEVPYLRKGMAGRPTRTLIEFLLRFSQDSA
Put plainly: Leu-AP (E.C. 3,4,11,1) inhibition assay. Particulars: Leu-AP (Boehringer-Mannheim), leucyl-β-naphthylamide substrate, pH 7.6, 37° C., 30 minutes; read-out: IC/50 Leu--AP: amount of the peptide to inhibit the intact activity of the target enzyme by 50% (converted). In kind it is biochemical. Here is the method:
For enzyme assay, 0.25 ml of 2 mM […], 0.6 ml of 0.1 M Tris-HCl buffer, pH 7.6, and 0.1 ml of an aqueous solution containing a test compound were mixed and allowed to stand at 37° C. for 3 minutes. After a 20-fold dilution of Leu-AP (Boehringer-Mannheim Co.) in 0.1 M Tris-HCl buffer, pH 7.6 (0.05 ml) was added to the solution, the reaction was performed at 37° C. for 30 minutes. The inhibition percentage was measured as detailed in (1).

Assay [2] addresses glycylprolylleucine tripeptidylaminopeptidase (Gly-Pro-Leu-AP). Briefly: Gly-Pro-Leu-AP inhibition assay. Format: biochemical. Particulars: enzyme from cell membrane fraction of rat liver, Hanks solution pH 7.2, 37° C., 30 minutes. As to the method: According to the method of Aoyagi et al. (T. Aoyagi et al: BIOCHIMICA ET BIOPHYSICA ACTA 452, 131-143(1976)), after a reaction mixture consisting of 0.25 ml of 2 mM glycyl-L-α-prolyl-L-α-leucyl-β-naphthylamide (Buchem Fine Chemicals Co.), 0.6 ml of the Hanks solution, pH 7.2, and 0.1 ml of an aqueous test solution was kept at 37° C. for 3 minutes, 0.05 ml of a Gly-Pro-Leu-AP that was purified from the cell membrane fraction of the rat liver was added and the reaction was carried out at 37° C. for 30 minutes. The same procedure as described in (1) was used for calculation of the inhibition percentage.
The Hanks solution listed above was prepared by dissolving 8.0 g sodium chloride, 0.4 g potassium chloride, 0.14 g calcium chloride, 0.10 g magnesium chloride, 0.06 g disodium-monohydrogen phosphate, 0.06 g monopotassium dihydrogen phosphate, 0.10 g magnesium sulfate and 1.0 g glucose in 1 liter of distilled water and adjusting the solution to pH 7.2 with solid sodium bicarbonate (about 350 mg).

Assay [3] has as its target glycylhistidyllysine tripeptidylaminopeptidase (Gly-His-Lys-AP). Briefly: Gly-His-Lys-AP inhibition assay. Format: biochemical. Particulars: enzyme from FM3A cells (mouse mammary tumor), Hanks solution pH 7.2, 37° C., 30 minutes. Here is the method:
For enzyme assay, 0.25 ml of 0.5 mM glycyl-L-α-histidyl-L-α-lysyl-β-naphthylamide, 0.62 ml of the Hanks solution, pH 7.2, and 0.1 ml of an aqueous solution of a substance to be tested were combined and maintained at 37° C. for 3 minutes. Gly-His-Lys-AP solution (0.03 ml) which was purified from the FM3A cells (a line of culture cells derived from mouse mammary tumor) by the method described in the reference of (4) was added to the solution and incubated at 37° C. for 30 minutes. The inhibition percentage was calculated as shown in (1).
Gly-His-Lys -β-naphthylamide used above was prepared as follows: to a solution containing 1 g of Gly-His-Lys-acetate (Buchem Fine Chemicals Co.) and 3.0 g of sodium bicarbonate in 60 ml of distilled water, 2.13 ml of Z-Cl was added dropwise under cooling with ice and then stirred for 3 hours. The same treatment as detailed above in Experiment 1-(7) was performed to give 605.8 mg of the Z-derivative of the tripeptide. […]

The next assay concerns the target pepsin (Homo sapiens, UniProt P0DJD8). Particulars: prior art; cited from earlier work.
For another assay, the target named is T3, papain (Carica papaya, UniProt P00784).
T3 sequence (P00784 134-345): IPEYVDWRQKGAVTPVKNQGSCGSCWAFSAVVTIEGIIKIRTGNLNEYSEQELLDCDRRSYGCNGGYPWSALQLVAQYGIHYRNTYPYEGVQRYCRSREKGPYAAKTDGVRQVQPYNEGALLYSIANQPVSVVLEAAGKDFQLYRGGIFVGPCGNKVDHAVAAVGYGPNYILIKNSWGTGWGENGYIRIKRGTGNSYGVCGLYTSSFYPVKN
Particulars: prior art; cited from earlier work.

Another assay has as its target aminopeptidase B (Homo sapiens, UniProt Q9H4A4). Particulars: prior art, U.S. Pat. No. 4,029,547; cited from earlier work.
Another assay deals with leucine aminopeptidase (Homo sapiens, UniProt P28838). Particulars: prior art, U.S. Pat. No. 4,029,547; cited from earlier work.
Sequence of leucine aminopeptidase (P28838 whole entry): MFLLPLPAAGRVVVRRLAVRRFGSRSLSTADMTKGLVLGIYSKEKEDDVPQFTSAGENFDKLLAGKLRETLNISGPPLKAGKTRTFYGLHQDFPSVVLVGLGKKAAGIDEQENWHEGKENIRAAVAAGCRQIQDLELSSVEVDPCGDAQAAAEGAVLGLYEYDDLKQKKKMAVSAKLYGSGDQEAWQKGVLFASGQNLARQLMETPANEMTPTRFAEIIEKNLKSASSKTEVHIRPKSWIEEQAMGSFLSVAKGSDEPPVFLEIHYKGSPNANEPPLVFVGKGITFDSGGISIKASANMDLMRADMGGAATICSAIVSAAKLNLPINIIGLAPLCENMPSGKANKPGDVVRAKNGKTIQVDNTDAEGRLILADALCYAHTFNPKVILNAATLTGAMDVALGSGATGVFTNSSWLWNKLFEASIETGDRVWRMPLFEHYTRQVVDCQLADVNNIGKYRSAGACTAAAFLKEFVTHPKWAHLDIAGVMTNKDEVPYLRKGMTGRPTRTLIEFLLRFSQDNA
The target of the next assay is aminopeptidase A (Homo sapiens, UniProt Q07075). Particulars: prior art; cited from earlier work.
Sequence of aminopeptidase A (Q07075 whole entry, species assumed): as the sequence (Q07075 whole entry) above
Another assay addresses T4, trypsin (Bos taurus, UniProt P00760).
T4 construct: gene PRSS1
T4 sequence (P00760 24-246): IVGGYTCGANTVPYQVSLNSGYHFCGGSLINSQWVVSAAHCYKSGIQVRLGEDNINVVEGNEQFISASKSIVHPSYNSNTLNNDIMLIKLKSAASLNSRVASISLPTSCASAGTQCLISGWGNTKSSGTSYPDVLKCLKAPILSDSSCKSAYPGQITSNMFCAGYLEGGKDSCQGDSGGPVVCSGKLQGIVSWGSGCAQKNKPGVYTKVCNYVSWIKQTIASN
Particulars: prior art; cited from earlier work.

Sequence of pepsin (P0DJD8 63-388): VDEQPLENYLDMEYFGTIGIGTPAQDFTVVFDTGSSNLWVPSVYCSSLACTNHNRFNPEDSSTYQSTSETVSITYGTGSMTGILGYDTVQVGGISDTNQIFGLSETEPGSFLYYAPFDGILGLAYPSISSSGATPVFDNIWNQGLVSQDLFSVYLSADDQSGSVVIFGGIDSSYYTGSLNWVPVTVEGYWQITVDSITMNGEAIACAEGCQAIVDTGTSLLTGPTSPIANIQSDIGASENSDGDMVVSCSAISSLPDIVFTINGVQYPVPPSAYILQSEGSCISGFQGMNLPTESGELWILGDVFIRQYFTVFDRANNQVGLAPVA
Sequence of aminopeptidase B (Q9H4A4 whole entry, species assumed): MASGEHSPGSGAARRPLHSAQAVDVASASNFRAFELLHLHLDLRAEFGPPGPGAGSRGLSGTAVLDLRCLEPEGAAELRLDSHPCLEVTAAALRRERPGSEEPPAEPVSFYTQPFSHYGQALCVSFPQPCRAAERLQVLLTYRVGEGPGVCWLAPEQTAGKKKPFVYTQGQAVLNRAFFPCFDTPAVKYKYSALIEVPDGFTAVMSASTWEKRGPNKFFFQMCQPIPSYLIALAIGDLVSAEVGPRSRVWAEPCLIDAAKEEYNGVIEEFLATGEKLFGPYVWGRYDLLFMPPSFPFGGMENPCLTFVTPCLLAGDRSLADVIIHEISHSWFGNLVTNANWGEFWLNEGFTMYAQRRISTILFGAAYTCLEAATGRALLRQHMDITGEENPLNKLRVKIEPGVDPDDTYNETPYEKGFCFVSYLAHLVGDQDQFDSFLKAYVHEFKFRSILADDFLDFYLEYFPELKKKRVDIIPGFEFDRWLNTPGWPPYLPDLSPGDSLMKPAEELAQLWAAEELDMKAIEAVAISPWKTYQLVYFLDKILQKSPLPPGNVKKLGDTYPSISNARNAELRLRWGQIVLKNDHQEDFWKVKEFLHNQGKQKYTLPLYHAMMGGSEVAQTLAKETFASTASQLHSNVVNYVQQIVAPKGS

As for `CC(C)C[C@@H](N)[C@H](O)C(=O)N[C@H](C(=O)N[C@@H](CCC(=O)O)C(=O)N[C@@H](CC(=O)O)C(=O)O)C(C)C` [X--Val--Glu--Asp, (2S,3R)-AHMHA-Val-Glu-Asp], the IC50 on aminopeptidase A (AP-A) is 15.9 µM; in assay [1] it was 0.198 µM. The “IC/50 Gly--Pro--Leu--AP: amount of the peptide to inhibit the intact activity of the target enzyme by 50%” value in assay [2] stood at 15 µg/mL. The “IC/50 Gly--His--Lys--AP: amount of the peptide to inhibit the intact activity of the target enzyme by 50%” value in assay [3] turned out to be 100 µg/mL.

In the case of `CC(C)CC(=O)N[C@H](C(=O)N[C@H](C(=O)N[C@@H](CC(C)C)[C@@H](O)CC(=O)N[C@@H](C)C(=O)N[C@@H](CC(C)C)[C@@H](O)CC(=O)O)C(C)C)C(C)C` [pepstatin] (Isovaleryl-VV[Sta]A[Sta]-OH), the inhibition of pepsin entry at pepsin is listed as “inhibit”.

As to `CC(C)[C@H](NC(=O)[C@H](CCCNC(=N)N)NC(=O)N[C@@H](Cc1ccccc1)C(=O)O)C(=O)N[C@H](C=O)CCCNC(=N)N` [antipain] ({Phe-CO}-Arg-Val-Arg-aldehyde), the inhibition of papain entry on papain is reported as “inhibit”.

For `CC(C)C[C@@H](N)[C@H](O)C(=O)N[C@@H](CCC(=O)O)C(=O)N[C@H](C(=O)N[C@@H](CC(=O)O)C(=O)O)C(C)C` [X--Glu--Val--Asp, (2S,3R)-AHMHA-Glu-Val-Asp], the figures for the IC50 (at aminopeptidase A (AP-A); in assay [1]) were 3.96 µM and 79.3 µM, respectively. Besides, the “IC/50 Gly--Pro--Leu--AP: amount of the peptide to inhibit the intact activity of the target enzyme by 50%” value in [2] stood at 6 µg/mL. The “IC/50 Gly--His--Lys--AP: amount of the peptide to inhibit the intact activity of the target enzyme by 50%” value in assay [3] stood at 2.0 µg/mL.

As for `CC(C)C[C@H](NC(=O)[C@@H](O)[C@H](N)Cc1ccccc1)C(=O)O` [Bestatin, [(2S,3R)-3-amino-2-hydroxy-4-phenylbutanoyl]-L-leucine], the “inhibition of aminopeptidase B” value at aminopeptidase B is “inhibits”. Further, at leucine aminopeptidase, the “inhibition of leucine aminopeptidase” value is “inhibits”. Besides, the “inhibition of aminopeptidase A” value on aminopeptidase A is “does not have any inhibitory effect”.

Turning to `CC(=O)N[C@@H](CC(C)C)C(=O)N[C@@H](CC(C)C)C(=O)N[C@H](C=O)CCCNC(=N)N` [leupeptin], the inhibition of trypsin result at trypsin was “inhibit”.
